Results as given in patent US20220304308A1, “METHOD FOR CONTROLLING GROWTH OF GLYPHOSATE-TOLERANT PLANTS” (JIANGSU ROTAM CHEMISTRY CO., LTD., priority 2019, published 2022).

Experiments:
Assay type in all cases: in vivo
[1] = system: soybean plants; test: Phytotoxicity test on soybean sown in treated plots at different times after treatment (Example 3); design: key: EWRC scale 1-9: 1 = no symptoms, 9 = total plant destruction
Method: Sourgrass plants were planted and kept at about 24° C. and 85% humidity throughout the experiment.
The sourgrass plants were treated with water dispersible granule (WG) formulations of nicosulfuron and/or glyphosate as summarised in Table 5.
Soybean seeds were sown separately in each of the treated plots 1 day, 7 days, 14 days, 20 days and 30 days after the treatment.
(§1) In order to quantify the damage caused to the soybean plants, visual analysis of phytotoxicity was conducted and recorded based on the scale proposed by the European Weed Research Council. The extent of damage on this scale varies from 1 to 9, where “1” represents absence of symptoms and “9” represents total plant destruction.
Evaluation was conducted 7 days, 14 days, 21 days and 28 days after emergence of the soybean plants.

[2] = system: soybean plants; test: Phytotoxicity tests on soybean sown 20 days after treatment under conditions X1-X4 (Example 4); conditions: Nicosulfuron 75 g/ha, Glyphosate 0 g/ha, 150 L/ha, evaluated 7 days after emergence, EWRC scale 1-9
Method: Sourgrass plants were planted and kept at the conditions summarised in Table 7 below throughout the experiment:
The WG formulations were dispersed in water and applied to the locus of the sourgrass plants at a volumetric rate of 150 L/ha.
Soybean seeds were sown in a greenhouse in the treated plots 20 days after the treatment with the herbicide(s). The period of 20 days was determined by applying Formula I above to the parameters set out above.
as §1
Evaluation was conducted 7 days after emergence of the soybean plants.

[3] = system: glyphosate-resistant sourgrass (Digitaria insularis); test: Post-emergence treatment test on glyphosate-resistant sourgrass, nicosulfuron WG formulations (Example 1); conditions: conclusion from Table 2
Method: Post-emergence treatment tests were conducted on glyphosate-resistant sourgrass (Digitaria insularis). Sourgrass plants were planted and kept in a greenhouse at about 24° C. and 85% humidity throughout the experiment.
The WG formulations were each diluted with water prior to treatment of the sourgrass plants.
The herbicidal efficiency of each formulation as determined by visual observation at each of 7, 14 and 20 days after the treatment.
The the efficacy of each formulation is represented by a comparison between the treated plants and the Control plants. A score of 0% represents no herbicidal activity. A score of 100% represents complete herbicidal activity (plants completely killed).

Structure (SMILES): COc1cc(OC)nc(NC(=O)NS(=O)(=O)c2ncccc2C(=O)N(C)C)n1 [Nicosulfuron, 2-(4,6-dimethoxypyrimidin-2-ylcarbamoylsulfamoyl)-N,N-dimethylnicotinamide]
- Phytotoxicity Level ([1]; Nicosulfuron 50 g/ha, Glyphosate 0 g/ha (A3 of Table 5), soybean sown 1 day after treatment, EWRC scale 1 (absence of symptoms) to 9 (total plant destruction)): 4
- Phytotoxicity Level ([1]; Nicosulfuron 50 g/ha, Glyphosate 0 g/ha (A3 of Table 5), soybean sown 7 days after treatment, EWRC scale 1-9): 3
- Phytotoxicity Level ([1]; Nicosulfuron 50 g/ha, Glyphosate 0 g/ha (A3 of Table 5), soybean sown 14 days after treatment, EWRC scale 1-9): 2
- Phytotoxicity Level ([1]; Nicosulfuron 50 g/ha, Glyphosate 0 g/ha (A3 of Table 5), soybean sown 20 days after treatment, EWRC scale 1-9): 1
- Phytotoxicity Level ([1]; Nicosulfuron 50 g/ha, Glyphosate 0 g/ha (A3 of Table 5), soybean sown 30 days after treatment, EWRC scale 1-9): 1
- Phytotoxicity Level ([1]; Nicosulfuron 75 g/ha, Glyphosate 0 g/ha (C3 of Table 5), soybean sown 1 day after treatment, EWRC scale 1-9): 4
- Phytotoxicity Level ([1]; Nicosulfuron 75 g/ha, Glyphosate 0 g/ha (C3 of Table 5), soybean sown 7 days after treatment, EWRC scale 1-9): 4
- Phytotoxicity Level ([1]; Nicosulfuron 75 g/ha, Glyphosate 0 g/ha (C3 of Table 5), soybean sown 14 days after treatment, EWRC scale 1-9): 2
- Phytotoxicity Level ([1]; Nicosulfuron 75 g/ha, Glyphosate 0 g/ha (C3 of Table 5), soybean sown 20 days after treatment, EWRC scale 1-9): 1
- Phytotoxicity Level ([1]; Nicosulfuron 75 g/ha, Glyphosate 0 g/ha (C3 of Table 5), soybean sown 30 days after treatment, EWRC scale 1-9): 1
- Phytotoxicity Level ([2]; conditions X1 (17 ° C., 95% humidity, 8.5 hr sunlight per day), soybean sown 20 days after treatment): 1
- Phytotoxicity Level ([2]; conditions X2 (24 ° C., 85% humidity, 9 hr sunlight per day), sown 20 days after treatment): 1
- Phytotoxicity Level ([2]; conditions X3 (32 ° C., 65% humidity, 9.5 hr sunlight per day), sown 20 days after treatment): 1
- Phytotoxicity Level ([2]; conditions X4 (37 ° C., 30% humidity, 10 hr sunlight per day), sown 20 days after treatment): 1
- control of sourgrass plants (in words) [3]: effective
